The record followed here is patent US9220703B2, “Composition and method for the protection of articular cartilage” (priority 2014, dated 2015).

The test system of the experiment is Mycobacterium tuberculosis (adjuvant) induced arthritis. In words: Adjuvant induced arthritis in rats, histopathology of paw/ankle joint tissue. The experiment is classed as in vivo, Albino Wistar rats. Conditions: for Histopathology of rat paw tissue: articular cartilage / Histopathology of rat paw tissue: granulomas / Histopathology of rat paw tissue: synovial tissue: adjuvant arthritic rats, H&E stain. How it is done:
Pathological damage: Adjuvant induced arthritis in animal models
Animals used: Albino Wistar rats of either sex
Weight of the animals: 140-180 grams
Number of animals/group: 5
Methodology: Chronic arthritis was induced in rats by the injection of 0.05 mL of (0.5% w/v) suspension of killed Mycobacterium tuberculosis, homogenized in liquid paraffin in the left hind foot.
Right ankle joints of the animals in the control and treated groups were separated from the hind paw, weighed and immersed in 10% buffered formalin for 24 hours, followed by decalcification in 10% EDTA. The joints were then dehydrated, processed and paraffin (56 C-58 C) blocks were prepared, stained (hematoxylin and eosin) and examined under the compound microscope (Patel P, Patel D, Patel N. Experimental investigation of anti-rheumatoid activity of Pleurotus sajorcaju in adjuvant-induced arthritic rats. Chinese Journal of Natural Medicines, 2012; 10 (4): 0269-0274.

Consider `COc1cc(/C=C/C(=O)COC(=O)/C=C/c2ccc(O)c(OC)c2)ccc1O` [Calebin A], for which, under “Calebin A 10 mg/kg per oral”, the “Histopathology of rat paw tissue: articular cartilage” value is “intact articular cartilage with synovial tissue in the joint”; the “Histopathology of rat paw tissue: granulomas” value was “No granulomas were seen”; the “Histopathology of rat paw tissue: synovial tissue” value was “congested vascular spaces (Long-Arrows), scattered lymphocytes (Short-Arrow) and intact synovial lining”. Also, where the note is “Calebin A 20 mg/kg per oral”, the “Histopathology of rat paw tissue: articular cartilage” value is given as “intact articular cartilage with synovial tissue in the joint”; the “Histopathology of rat paw tissue: granulomas” value is “No granulomas were seen”; the “Histopathology of rat paw tissue: synovial tissue” value was “mild synovial epithelial hyperplasia (Short-Arrow), scattered lymphocytes (Long-Arrow) and intact vascular spaces”. In addition, the “Protection of articular cartilage (histopathological studies, overall)” value (arthritic rats, across doses) is on record as “dose dependant protection of articular cartilage”.
